This is an account of results in patent US20250263395A1, “COMPOUNDS THAT MEDIATE PROTEIN DEGRADATION AND METHODS OF USE THEREOF” (Monte Rosa Therapeutics AG, priority 2022, published 2025).

One experiment addresses CRBN-DDB1 (Homo sapiens (Human), UniProt Q96SW2). Briefly: CRBN HTRF assay (Cy5-Thalidomide probe displacement). The class given is binding. To be noted: CRBN-DDB1 2.5 nM, Cy5-Thalidomide 100 nM, 30 min; Ki from geometric mean IC50 by Cheng-Prusoff. How it is done: Compound activity was monitored in a Homogenous Time-Resolved Fluorescence (HTRF) assay using 1-[5-({2-[2-(2-{[2-(2,6-dioxopiperidin-3-yl)-1,3-dioxo-2,3-dihydro-1H-isoindol-4-yl]oxy}acetamido)ethoxy]ethyl}carbamoyl)pentyl]-3,3-dimethyl-2-[(1E,3E)-5-[(2E)-1,3,3-trimethyl-5-sulfo-2,3-dihydro-1H-indol-2-ylidene]penta-1,3-dien-1-yl]-3H-indol-1-ium-5-sulfonate as a fluorescent probe. Biochemical assays were conducted in Greiner white 384 well HiBase plates (Cat. No 784075-25) in 10 μL total volume. A one pot detection solution of CRBN-DDB1 (2.5 nM), Anti-His Terbium Cryptate Gold (1×, PerkinElmer Cat. #: 61HI2TLB), and Cy5-Thalidomide (100 nM, Tenova Cat.: T52461) was prepared in 20 mM HEPES, 20 mM NaCl, 0.2 mM TCEP, 0.2 mM EDTA, and 0.005% Tween20 was dispensed to each assay plate. Compounds were stored in dry, ambient temperatures at 10 mM. A 10-point, 1:3 dilution series was prepared from 10 mM stock concentrations in Echo-compatible LDV plates. 10 nL of each compound dilution series was dispensed into assays wells using an Echo 650 (Labcyte inc. USA). 10 nL of 10 mM Lenalidomide was transferred into the active-control wells for the assay and 10 nL of DMSO was transferred into the neutral-control wells. The assay was then allowed to incubate for 30 min at ambient temperature after transferring compound. Plate measurements were taken on a Pherastar FSX (BMG Labtech, Germany) using the HTRF Red filter (Ex. 337 nm, em1: 620 nm, em2: 665 nm) (Flashes: 50, Integration time: 60-400 us, Z-height: 10 mm, Ratio-multiplier: 10,000). The HTRF signal was then subsequently normalized to the neutral and active controls. Analysis and IC50 values were derived using KNIME analytics (KNIME Zurich) transformation and fitting within Collaborative Drug Discovery (Collaborative Drug Discovery USA). Ki was derived from the geometric mean of the IC50 values using the Cheng-Prustoff transformation.
For orientation: TR-FRET usually uses a lanthanide donor and a delayed reading to cut background.

For another experiment, the target named is CDK2 (Homo sapiens (Human), UniProt P24941). Briefly: CDK2 NanoBiT assay (HiBiT-tagged CDK2 degradation). The class given is cell-based. To be noted: C-terminal HiBiT tag on CDK2, LgBiT, 24 hours; for Dmax: HEK293, HEK293 clonal line. How it is done: Example 145. NanoBiT Assay
A HEK293 clonal line with a CRISPR knock-in C-terminal HiBiT tag on CDK2 and stably expressing LgBiT protein was obtained from Promega (Madison, WI). Cells were plated at 5000 cells per well using Multiflo (BioTek) in 384-well white solid bottom plates (Corning, 3570BC) in 25 ul volume in DMEM media (DMEM, high glucose, HEPES, no phenol red (ThermoFisher Scientific, 21063029)) containing 10% FBS (Corning, 35-075-CV), 1% Peniciliin/Streptomycin ((ThermoFisher Scientific, 15140-122), and 1% Endurazine (Nano-Glo Endurazine Live Cell Substrate (Promega, N2571)). Cells were incubated for 16 hours at 37 C, 5% CO2. 75 nL of a compound at 30 μM were dosed into the plate using an Echo® 650 liquid handler (Labcyte). Cells were incubated at 37° C., 5% CO2 for 24 hours and then signal was read on a Pherastar FSX using “LUM plus” optic module.
Analysis was performed in Scinamic (Scinamic, Cambridge, MA). Luminescence response (R) was calculated by the formula: response=100*(S−N)/(P−N) where S is the signal of the well, N and P the mean negative and positive control values respectively of the same plate. The luminescence response was then fitted in Scinamic using a 3-parameter agonist logistic fit (hillslope=1, EC50>0, top/bottom unconstrained).

Chain of CRBN-DDB1 (Q96SW2 whole entry): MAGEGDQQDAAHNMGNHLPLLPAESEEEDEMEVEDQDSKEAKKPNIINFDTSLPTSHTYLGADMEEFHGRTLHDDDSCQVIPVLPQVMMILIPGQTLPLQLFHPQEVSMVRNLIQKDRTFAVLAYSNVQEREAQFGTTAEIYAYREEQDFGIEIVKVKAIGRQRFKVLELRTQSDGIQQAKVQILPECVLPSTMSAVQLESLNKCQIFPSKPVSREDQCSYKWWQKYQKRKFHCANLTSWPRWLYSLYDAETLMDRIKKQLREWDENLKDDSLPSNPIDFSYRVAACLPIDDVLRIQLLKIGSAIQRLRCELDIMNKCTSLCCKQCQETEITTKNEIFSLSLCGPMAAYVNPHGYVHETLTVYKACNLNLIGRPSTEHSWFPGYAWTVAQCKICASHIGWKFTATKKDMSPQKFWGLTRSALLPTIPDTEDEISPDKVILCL
Chain of CRBN-DDB1 (Q16531 whole entry partner): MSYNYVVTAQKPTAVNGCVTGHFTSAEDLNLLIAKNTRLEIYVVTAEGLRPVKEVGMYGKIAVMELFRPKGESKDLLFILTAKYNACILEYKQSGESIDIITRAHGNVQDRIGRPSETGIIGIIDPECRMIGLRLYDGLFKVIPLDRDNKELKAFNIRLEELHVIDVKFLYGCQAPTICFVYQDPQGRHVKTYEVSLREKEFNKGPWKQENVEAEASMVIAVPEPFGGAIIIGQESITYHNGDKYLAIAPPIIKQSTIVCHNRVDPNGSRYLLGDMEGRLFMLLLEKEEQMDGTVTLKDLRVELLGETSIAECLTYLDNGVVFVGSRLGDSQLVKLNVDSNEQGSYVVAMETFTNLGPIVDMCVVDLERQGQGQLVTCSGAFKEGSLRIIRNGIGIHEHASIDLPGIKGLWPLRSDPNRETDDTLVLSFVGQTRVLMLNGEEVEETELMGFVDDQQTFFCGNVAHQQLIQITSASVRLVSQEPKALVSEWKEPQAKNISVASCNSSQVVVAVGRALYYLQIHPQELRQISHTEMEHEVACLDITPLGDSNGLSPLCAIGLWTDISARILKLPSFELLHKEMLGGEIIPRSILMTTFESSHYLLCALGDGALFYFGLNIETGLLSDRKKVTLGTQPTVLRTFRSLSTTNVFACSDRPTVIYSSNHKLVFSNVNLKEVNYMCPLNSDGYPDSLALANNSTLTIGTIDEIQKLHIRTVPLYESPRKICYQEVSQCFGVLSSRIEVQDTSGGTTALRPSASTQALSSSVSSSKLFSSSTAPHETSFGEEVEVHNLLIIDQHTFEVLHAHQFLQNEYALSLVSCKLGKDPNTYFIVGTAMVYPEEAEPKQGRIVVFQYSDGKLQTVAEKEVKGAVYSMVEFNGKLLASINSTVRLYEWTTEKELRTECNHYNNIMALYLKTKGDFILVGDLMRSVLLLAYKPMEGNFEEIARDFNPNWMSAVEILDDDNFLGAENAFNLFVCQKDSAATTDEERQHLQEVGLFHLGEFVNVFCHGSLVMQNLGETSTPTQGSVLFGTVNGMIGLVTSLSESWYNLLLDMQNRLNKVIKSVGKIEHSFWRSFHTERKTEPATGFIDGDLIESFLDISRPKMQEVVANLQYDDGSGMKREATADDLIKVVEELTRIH

The term Ki denotes a dissociation constant, usually derived from enzyme kinetics or from competition with a known ligand. High values mean weaker binding, low ones tighter binding. The Dmax is the greatest extent of degradation seen. A high value points to a fuller loss of target. At CRBN-DDB1, `COc1c(N2CC(Nc3nnc(C4CC5(CCC5)C4)o3)C2)ccc(C2CCC(=O)NC2=O)c1F` (stereo not drawn) [Compound 94, 3-(2-fluoro-3-methoxy-4-(3-((5-(spiro[3.3]heptan-2-yl)-1,3,4-oxadiazol-2-yl)amino)azetidin-1-yl)phenyl)piperidine-2,6-dione] gave a Ki of 100 to 1000 nM. The compound also returned a Dmax at CDK2 of over 80%.
In the case of `CC(C)C1CC(COC(=O)NC2CN(c3cc(F)c(C4CCC(=O)NC4=O)c(F)c3)C2)C1` (stereo not drawn) [Compound 68, (3-isopropylcyclobutyl)methyl (1-(4-(2,6-dioxopiperidin-3-yl)-3,5-difluorophenyl)azetidin-3-yl)carbamate], the Ki at CRBN-DDB1 was 100 to 1000 nM. For the same compound, at CDK2, the Dmax is over 80%.
With `O=C1CCC(c2c(F)cc(N3CC(NC(=O)OC45CC(C(=O)c6ccccc6)(C4)C5)C3)cc2F)C(=O)N1` (stereo not drawn) [Compound 4], the Ki on CRBN-DDB1 is at most 100 nM. Also, the “CDK2 NanoBiT Dmax (%)” value at CDK2 (HEK293 clonal line) is recorded as “D (D represents Dmax value of >80%)”.
`O=C1CCC(c2c(Cl)cc(N3CC(NC(=O)OCC4CC5(CCC5)C4)C3)cc2Cl)C(=O)N1` (stereo not drawn) [Compound 28, spiro[3.3]heptan-2-ylmethyl (1-(3,5-dichloro-4-(2,6-dioxopiperidin-3-yl)phenyl)azetidin-3-yl)carbamate] registered an inhibitory constant (Ki) at CRBN-DDB1 of at most 100 nM. This compound returned a Dmax on CDK2 of over 80%.
As to `O=C1CCC(c2c(F)cc(N3CC(NC(=O)OC4CN(c5ccccn5)C4)C3)cc2F)C(=O)N1` (stereo not drawn) [Compound 83, 1-(pyridin-2-yl)azetidin-3-yl (1-(4-(2,6-dioxopiperidin-3-yl)-3,5-difluorophenyl)azetidin-3-yl)carbamate], on CRBN-DDB1, the inhibitory constant (Ki) is at most 100 nM. At CDK2, this compound had a Dmax of 50 to 80%.
As for `O=C1CCC(c2c(F)cc(N3CC(NC(=O)OC4CN(S(=O)(=O)C5CC5)C4)C3)cc2F)C(=O)N1` (stereo not drawn) [Compound 42, 1-(cyclopropylsulfonyl)azetidin-3-yl (1-(4-(2,6-dioxopiperidin-3-yl)-3,5-difluorophenyl)azetidin-3-yl)carbamate], the Ki on CRBN-DDB1 is at most 100 nM. The compound further yielded a maximal degradation (Dmax) at CDK2 of 10 to 50%.
With `O=C1CCC(c2c(F)cc(N3CC(NC(=O)OCc4ccc(OC(F)(F)F)cc4)C3)cc2F)C(=O)N1` (stereo not drawn) [Compound 35, 4-(trifluoromethoxy)benzyl (1-(4-(2,6-dioxopiperidin-3-yl)-3,5-difluorophenyl)azetidin-3-yl)carbamate], the Ki at CRBN-DDB1 lay in the range of 100 to 1000 nM. In addition, at CDK2, the Dmax was over 80%.
Regarding `O=C1CCC(c2c(F)cc(N3CC(NC(=O)OCC4CCCCC4)C3)cc2F)C(=O)N1` (stereo not drawn) [Compound 51, cyclohexylmethyl (1-(4-(2,6-dioxopiperidin-3-yl)-3,5-difluorophenyl)azetidin-3-yl)carbamate], at CRBN-DDB1, the inhibition constant Ki was at most 100 nM. The Dmax on CDK2 was over 80%.
For `O=C1CCC(c2c(F)cc(N3CC(NC(=O)OC4CN(C(=O)N5CCCCC5)C4)C3)cc2F)C(=O)N1` (stereo not drawn) [Compound 36, 1-(piperidine-1-carbonyl)azetidin-3-yl (1-(4-(2,6-dioxopiperidin-3-yl)-3,5-difluorophenyl)azetidin-3-yl)carbamate] the same measures were at most 100 nM and 50 to 80%.
The compound `CC1(CCCOC(=O)NC2CN(c3cc(F)c(C4CCC(=O)NC4=O)c(F)c3)C2)CC1` (stereo not drawn) [Compound 66, 3-(1-methylcyclopropyl)propyl (1-(4-(2,6-dioxopiperidin-3-yl)-3,5-difluorophenyl)azetidin-3-yl)carbamate] gave a Ki at CRBN-DDB1 of at most 100 nM. Further, the Dmax on CDK2 is over 80%.
As for `COc1c(N2CC(NC(=O)OCC3CC4(CCC4)C3)C2)ccc(C2CCC(=O)NC2=O)c1Cl` (stereo not drawn) [Compound 63, spiro[3.3]heptan-2-ylmethyl (1-(3-chloro-4-(2,6-dioxopiperidin-3-yl)-2-methoxyphenyl)azetidin-3-yl)carbamate], the inhibitory constant (Ki) on CRBN-DDB1 was 100 to 1000 nM. The compound further yielded a Dmax on CDK2 of over 80%.
In the same order, the values of `Cc1c(Cl)cccc1N(C)C(=O)C12CC(OC(=O)NC3CN(c4cc(F)c(C5CCC(=O)NC5=O)c(F)c4)C3)(C1)C2` (stereo not drawn) [Compound 115, 3-((3-chloro-2-methylphenyl)(methyl)carbamoyl)bicyclo[1.1.1]pentan-1-yl (1-(4-(2,6-dioxopiperidin-3-yl)-3,5-difluorophenyl)azetidin-3-yl)carbamate] are at most 100 nM and 10 to 50%.
`O=C1CCC(c2c(F)cc(N3CC(NC(=O)OCc4ccccc4)C3)cc2F)C(=O)N1` (stereo not drawn) [Compound 37, benzyl (1-(4-(2,6-dioxopiperidin-3-yl)-3,5-difluorophenyl)azetidin-3-yl)carbamate]: the Ki at CRBN-DDB1 was 100 to 1000 nM. Moreover, on CDK2, the Dmax fell in the range of 50 to 80%.
With `CN(C(=O)C12CC(OC(=O)NC3CN(c4cc(F)c(C5CCC(=O)NC5=O)c(F)c4)C3)(C1)C2)c1cccc(Cl)c1` (stereo not drawn) [Compound 131, 3-((3-chlorophenyl)(methyl)carbamoyl)bicyclo[1.1.1]pentan-1-yl (1-(4-(2,6-dioxopiperidin-3-yl)-3,5-difluorophenyl)azetidin-3-yl)carbamate], the Ki on CRBN-DDB1 is at most 100 nM. Besides, the maximal degradation (Dmax) on CDK2 was 50 to 80%.
`O=C1CCC(c2c(F)cc(N3CC(Nc4nnc(CCC5CC5)o4)C3)cc2F)C(=O)N1` (stereo not drawn) [Compound 127, 3-(4-(3-((5-(2-cyclopropylethyl)-1,3,4-oxadiazol-2-yl)amino)azetidin-1-yl)-2,6-difluorophenyl)piperidine-2,6-dione] had a Ki at CRBN-DDB1 of at most 100 nM. Also, at CDK2, the Dmax lay in the range of 10 to 50%.
For `Cn1nccc1N1CC(OC(=O)NC2CN(c3cc(F)c(C4CCC(=O)NC4=O)c(F)c3)C2)C1` (stereo not drawn) [Compound 7, 1-(1-methyl-1H-pyrazol-5-yl)azetidin-3-yl (1-(4-(2,6-dioxopiperidin-3-yl)-3,5-difluorophenyl)azetidin-3-yl)carbamate] the same measures were at most 100 nM and 10 to 50%.
Take `O=C1CCC(c2ccc(N3CC(NC(=O)OCC4CC5(CCC5)C4)C3)cc2)C(=O)N1` (stereo not drawn) [Compound 62, spiro[3.3]heptan-2-ylmethyl (1-(4-(2,6-dioxopiperidin-3-yl)phenyl)azetidin-3-yl)carbamate]: the Ki at CRBN-DDB1 was in the range of 100 to 1000 nM. At CDK2, this compound yielded a Dmax of over 80%.
For `CN(C(=O)C12CC(OC(=O)NC3CN(c4cc(F)c(C5CCC(=O)NC5=O)c(F)c4)C3)(C1)C2)C1CC1` (stereo not drawn) [Compound 78, 3-(cyclopropyl(methyl)carbamoyl)bicyclo[1.1.1]pentan-1-yl (1-(4-(2,6-dioxopiperidin-3-yl)-3,5-difluorophenyl)azetidin-3-yl)carbamate] the same measures were at most 100 nM and 50 to 80%.
Compound `CN(CC1CC1)C(=O)N1CC(OC(=O)NC2CN(c3cc(F)c(C4CCC(=O)NC4=O)c(F)c3)C2)C1` (stereo not drawn) [Compound 43, 1-((cyclopropylmethyl)(methyl)carbamoyl)azetidin-3-yl (1-(4-(2,6-dioxopiperidin-3-yl)-3,5-difluorophenyl)azetidin-3-yl)carbamate] showed an inhibition constant (Ki) on CRBN-DDB1 of at most 100 nM. Moreover, at CDK2, the maximal degradation (Dmax) was 50 to 80%.
In the same order, the values of `O=C1CCC(c2c(F)cc(N3CC(NC(=O)OC[C@@H]4C[C@H]5CC[C@@H]4C5)C3)cc2F)C(=O)N1` (stereo partly drawn) [Compound 3, (1R,2R,4S)-bicyclo[2.2.1]heptan-2-ylmethyl (1-(4-(2,6-dioxopiperidin-3-yl)-3,5-difluorophenyl)azetidin-3-yl)carbamate] are at most 100 nM and over 80%.
In the case of `Cc1ccc(N(C)C(=O)N2CC(OC(=O)NC3CN(c4cc(F)c(C5CCC(=O)NC5=O)c(F)c4)C3)C2)nc1` (stereo not drawn) [Compound 110, 1-(methyl (5-methylpyridin-2-yl)carbamoyl) azetidin-3-yl (1-(4-(2,6-dioxopiperidin-3-yl)-3,5-difluorophenyl)azetidin-3-yl) carbamate], on CRBN-DDB1, the inhibitory constant (Ki) was at most 100 nM. The compound further had a Dmax at CDK2 of 10 to 50%.
